The test system of assay [1] is Porphyromonas gingivalis strain A7A1-28. Description: microdilution bacteriostatic assay (P. gingivalis growth inhibition). Particulars: for P. gingivalis: % increase in time to reach mid logphase growth (0.2 OD): 2 mM dose. In kind it is cell-based. The procedure: (a) The bacteria used in one investigation, Porphyromonas gingivalis strain A7A1-28, is a typical key pathogenic organism associated with destructive periodontal diseases. The bacteria were multiply subcultured in Enriched Todd Hewitt broth (ETHB, Difco Lab., Detroit, Mich.). Microorganisms were stored in the same broths containing 20% and 50% glycerol, at -20° C. and -70° C., respectively. These served as stock cultures from which all preparations originated.
Working stock cultures were maintained by weekly transfer to Brain Heart Infusion Anaerobic Sheep Blood Agar plates (BHIA, Becton Dickinson and Co., Cockeysville, Md.), and Trypticase Soy Anaerobic Sheep Blood Agar plates (TSA, Becton Dickinson and Co., Cockeysville, Md.). Plates were incubated for 3 to 4 days under strictly anaerobic conditions. For the bacteriostatic assay, bacteria were collected from plates, inoculated into the aforementioned broth and grown at 37° C., under strictly anaerobic conditions for 24 to 48 hours.
A modification of the typical microdilution assay (Rotilie et al., 1975) for the determination of minimal inhibitory concentration (MIC) of antimicrobial agents was utilized to investigate the bacteriostatic activity of the peptides. A standardized bacterial inoculum (P. gingivalis) was exposed to serially diluted antimicrobial peptides in an enriched broth medium that was suitable for the growth of anaerobic bacteria. The test was adapted for use in the 96-well microtiter plates. […] The modification introduced here was based on the spectrophotometric reading of the microtiter plate after incubation.
Microorganisms from cultures maintained in the aforementioned plates were inoculated into 5 ml of the above-mentioned broths and cultured overnight at 37° C. under strictly anaerobic conditions with continuous agitation on a minishaker (IKA-Labortechnik, Staufen i. Br., Germany). The bacteria were grown until reaching the late log phase and were then suspended in the same broths to an optical density (O.D.) of 0.1 at 560 nm. The peptides were diluted in 0.01M phosphate buffered saline (PBS), pH 7. Forty μl aliquots of peptide dilutions were added in each well of a U-bottom microtiter plate (Costar, Cambridge, Mass.) to give final concentrations of 2000, 1000, 500 and 250 μM. Twenty μl of bacterial inoculum was added to all the wells. Finally, 100 μl of the suitable broth were added to each well. The optical density of the wells of the microtiter plate was determined using a microplate reader set at 550 nm and the plate was then incubated under strictly anaerobic conditions for 24 hours. Controls were made by replacing the peptide dilutions with PBS alone. After the incubation, the mixtures in each well were mixed manually to resuspend sedimented bacteria and the plate was read again. The experiments were conducted twice every time. The biologic activity was calculated according to the formula:
100-[[(Fin ODexp-In ODexp)/(Fin ODctr-In ODctr)]×100]
In addition, the % increase in time to reach midlog phase growth was calculated.
The data presentation represent the means (±SEM) of at least 2 separate experiments.

Assay [2] concerns P. gingivalis hemagglutination of erythrocytes. In words: histatin peptide inhibition of hemagglutination assay. In kind it is cell-based, Porphyromonas gingivalis. Particulars: for Hemagglutination: lowest dose (μM) at which hemagglutination was observed using P. Gingivalis: 2 hours at room temperature, visual examination. The procedure: The P. gingivalis strain of Section C.(1) was also used for the hemagglutination assays. The bacterial growth and culture conditions were also the same as those described in Section C.(1).
A classic assay was utilized to determine the hemagglutination potential of the P. gingivalis strain. Microorganisms were inoculated into BFB broth and cultured overnight, for approximately 24 hours at 37° C. under strictly anaerobic conditions with continuous agitation on a minishaker (IKA-Labortechnik, Staufen i. Br., Germany). The bacteria were harvested by centrifugatin at 3,000 r.p.m. for 20 min, at 4° C., washed twice in 0.01M phosphate buffered saline (PBS), pH 7.4, and suspended in the same buffer to an optical density of 1.0 at 550 nm. […] One ml of blood was drawn each time, washed twice in PBS at 1,000 r.p.m. for 10 min at 4° C. and suspended in the same buffer at a 2% (v/v) final concentration. Fifty μl of the bacterial suspension were serially diluted in PBS (two-fold steps) in a 96-well U-bottom microplate (Costar, Cambridge, Mass.). Fifty μl of the erythrocyte suspension were added to each well. Controls without bacteria or erythrocytes were included. The microplate was slightly shaken and incubated at room temperature for 2 hours. Visible examination on a white background was used to determine hemagglutination. The amount of hemagglutination was rated as none,(-), moderate (+/-), or strong (+). Erythrocytes in control wells with PBS precipitated to the center of the well, whereas erythrocyte-bacteria aggregates precipitated at the periphery of the bottom. The hemagglutination titer was expressed as the reciprocal of the highest dilution of the bacterial suspension providing visible hemagglutination.
Preparation of erythrocyte and bacterial suspensions were the same as for the hemagglutination assay. Fifty μl of histatin peptide solutions were diluted in PBS in a U-bottom microplate, at various two-fold concentrations with 600 nmole/ml being the highest. The bacterial concentration utilized was normally twice the minimal concentration which gave strong hemagglutination. Equal volumes of the bacterial suspension were poured into the wells containing the histatin peptides. Finally, 50 μl of erythrocyte suspension were added in each well. The microplate was slightly shaken and incubated at room temperature for 2 hours. Controls were made by replacement of the peptide dilutions with PBS only. The experiments were conducted at least twice. The lowest histatin peptide concentration without hemagglutination (complete inhibition) was determined upon visual examination. The highest final histatin peptide concentration utilized was 100 nmole/ml.

This is an account of results in US5912230A, “Anti-fungal and anti-bacterial histatin-based peptides” (priority 1998, dated 1999).

Where no end group is shown, it is not given here.

AKRHHGYKR [peptide 120]: the “P. gingivalis growth inhibition, in words” value in assay [1] is “P. gingivalis growth inhibition”. In assay [2], the “bacteria mediated hemagglutination inhibition, in words” value is reported as “bacteria mediated hemagglutination inhibition” and the “Hemagglutination: lowest dose (μM) at which hemagglutination was observed using P. Gingivalis” value (“Hemagglutination … using P. Gingivalis” below) worked out at 50 µM.

For the substance AKRHHGYKRK [peptide 119], the “P. gingivalis growth inhibition, in words” value in assay [1] was “P. gingivalis growth inhibition”. In assay [2], the “bacteria mediated hemagglutination inhibition, in words” value was “bacteria mediated hemagglutination inhibition” and the “Hemagglutination … using P. Gingivalis” value amounted to 25 µM.

On to AKRHHGYKRKF [peptide 118], for which, in assay [1], the “P. gingivalis growth inhibition, in words” value was “P. gingivalis growth inhibition”. For the same substance, in assay [2], the “bacteria mediated hemagglutination inhibition, in words” value is on record as “bacteria mediated hemagglutination inhibition” and the “Hemagglutination … using P. Gingivalis” value was determined as 6.25 µM.

Turning to AKRHHGYKRKFH [peptide 113], in assay [1], the “P. gingivalis growth inhibition, in words” value is reported as “P. gingivalis growth inhibition” and the “P. gingivalis: % increase in time to reach mid logphase growth (0.2 OD)” value is reported as 34.95%. Besides, in assay [2], the “bacteria mediated hemagglutination inhibition, in words” value is listed as “bacteria mediated hemagglutination inhibition” and the “Hemagglutination … using P. Gingivalis” value is 25 µM.

As to “His 11: histatin 11 (SEQ ID NO: 11), subpeptide of peptide 113 (KRHHGYKR)”, the “P. gingivalis growth inhibition, in words” value in assay [1] is given as “P. gingivalis growth inhibition”. For the same substance, in assay [2], the “bacteria mediated hemagglutination inhibition, in words” value is on record as “bacteria mediated hemagglutination inhibition” and the “Hemagglutination … using P. Gingivalis” value was determined as 100 µM.

For the substance KRHHGYKRKF [peptide 129], in assay [1], the “P. gingivalis growth inhibition, in words” value is on record as “P. gingivalis growth inhibition” and the “P. gingivalis: % increase in time to reach mid logphase growth (0.2 OD)” value amounted to 15.4%. Also, in assay [2], the “bacteria mediated hemagglutination inhibition, in words” value is reported as “bacteria mediated hemagglutination inhibition” and the “Hemagglutination … using P. Gingivalis” value was determined as 50 µM.

Regarding “peptide 117: subpeptide of peptide 113 (SEQ ID NO: 19) (KRHHGYKRKFH)”, in assay [1], the “P. gingivalis growth inhibition, in words” value was “P. gingivalis growth inhibition”. Moreover, in assay [2], the “bacteria mediated hemagglutination inhibition, in words” value is recorded as “bacteria mediated hemagglutination inhibition”.
